In patent US6166000A, “Methods for preparation and use of 1α,24(S)-Dihydroxy vitamin . D.sub2” (priority 1995, dated 2000):
Like-named read-outs stand apart in the source and are kept apart here.

Tests used:
vitamin D receptor (VDR) = target: T1, vitamin D receptor (VDR) (Homo sapiens, UniProt P11473); assay: Vitamin D-dependent transcriptional activation: growth hormone production in COS-1 cells co-transfected with VDR plasmid and VDRE-GH plasmid; assay type: cell-based; conditions: for Total GH Production: averages of duplicate determinations
T1 sequence (P11473 1-427): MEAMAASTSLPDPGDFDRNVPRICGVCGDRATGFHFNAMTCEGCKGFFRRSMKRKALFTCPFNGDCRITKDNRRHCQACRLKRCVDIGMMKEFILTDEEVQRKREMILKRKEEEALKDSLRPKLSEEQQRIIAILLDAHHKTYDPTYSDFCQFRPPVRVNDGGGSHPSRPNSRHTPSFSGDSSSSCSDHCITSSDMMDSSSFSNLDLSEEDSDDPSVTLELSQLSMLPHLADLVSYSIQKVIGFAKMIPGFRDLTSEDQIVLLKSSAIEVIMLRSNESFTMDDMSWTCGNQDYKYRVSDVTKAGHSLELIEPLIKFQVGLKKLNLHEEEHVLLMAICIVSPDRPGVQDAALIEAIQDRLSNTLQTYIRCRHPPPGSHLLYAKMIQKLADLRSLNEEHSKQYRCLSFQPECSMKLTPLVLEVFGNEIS
Method: The biological activity in vitro of chemically synthesized 1α,24(S)-(OH)2 D2 and 1α,24(R)-(OH)2 D2 was measured using a vitamin D-dependent transcriptional activation model system in which a vitamin D receptor (VDR)-expressing plasmid pSG5-hVDR1/3and a plasmid p(CT4)^4 TKGH containing a Growth Hormone (GH)-gene, under the control of a vitamin D-responsive element (VDRE) were co-transfected into Green monkey kidney, COS-1 cells. DNA's for these two vectors were supplied by Dr. Mark Haussler, Department of Biochemistry, University of Arizona, Tucson, Ariz.
Tranfected cells were incubated with vitamin D metabolites and growth hormone production was measured.

[1] = tested on: 1,25-(OH)2 D3 receptor site; conditions: Ishizuka et al., Steroids 1981, 1982; cited from earlier work
Hep 3B cells = assay: Metabolite production in Hep 3B cells incubated with 1α-OH-D2; assay type: in vitro ADME, human; conditions: Experiment 2; substrate 1α-OH-D2 10 μM; photodiode array spectrophotometry
Method: Substantially pure 1α-(OH)D2 was obtained from Bone Care International, Inc. of Madison, Wis. The 1α-(OH)D2 was cultured for 48 hours with cells derived from a human hepatoma, Hep 3B, in medium devoid of fetal calf serum using known methods in the art.
Lipid extracts of the combined medium and cells were generated by known methods in the art and were subjected to high pressure liquid chromatography (HPLC) on Zorbax-S1L developed with hexane/isopropanol/methanol (91:7:2). The putative 1α,24(?)-(OH)2 D2 metabolite eluted between the parent 1α-(OH)D2 and standard 1α,25-(OH)2 D2 (also obtained from Bone Care International, Inc. of Madison, Wis.). (As used herein, the term "1α,24(?)-(OH)2 D2 " is meant to indicate that the epimeric form has not been identified.) The 1α,24(?)-(OH)2 D2 was further purified by this HPLC system before the metabolite's identification was undertaken using mass spectrometry analysis.
Hep 3B cells were incubated with 1α-OH-D2, as described above, at final concentrations of 1, 10, or 100 nM (Experiment 1), and 1 or 10 μM (Experiment 2) and 1α,24(S)-(OH)2 D2 was extracted and purified. The 1α,24(S)-(OH)2 D2 and 1α,25-(OH)2 D2 metabolites were quantitated by recovered radiolabel (Experiment 1) or by photodiode array spectrophotometry (Experiment 2).

[2] = tested on: human osteoporotic patients; conditions: dosages of 2.0 μg/day or higher; cited from earlier work
[3] = assay type: in vivo, rat
Method: Vitamin D2 or 24-OH-D2 was administered (either oral or intraperitoneal supplementation) to vitamin D-deficient rats. Lipid extracts of the plasma were prepared and the metabolites purified by the method of Horst et al. (Horst, R. L., Koszewski, N. J. and Reinhardt, T. A., Biochem., 29:578-82 (1990)) described below for synthesyzing standard biological 1α,24-(OH)2 D2.
Standard biological 1α,24-(OH)2 D2 was synthesized in vitro from 24-OH-D2 by incubating 10 μg of 24-OH-D2 in flask containing 5 ml of 20% kidney homogenates made from vitamin D-deficient chicks. The product of this reaction was isolated by HPLC and identified by mass spectrometry.

[4] = oral or intraperitoneal supplementation, vitamin D-deficient rats, HPLC

C=C1/C(=C\C=C2/CCC[C@]3(C)[C@@H]([C@H](C)/C=C/[C@](C)(O)C(C)C)CC[C@@H]23)C[C@@H](O)C[C@@H]1O [1α,24(R)-(OH)2 D2, 1α,24(R)-dihydroxy vitamin D2]
Total GH Production (vitamin D receptor (VDR); inducer 10^-7 molar): 1300 ng/mL
Total GH Production (vitamin D receptor (VDR); inducer 10^-8 molar): 1100 ng/mL
Net vitamin D-inducible GH-production (vitamin D receptor (VDR); inducer 10^-9 molar): 36 ng/mL
Total GH Production (vitamin D receptor (VDR); inducer 10^-9 molar): 80 ng/mL

C=C1/C(=C\C=C2/CCC[C@]3(C)[C@@H]([C@H](C)CC[C@@H](O)C(C)C)CC[C@@H]23)C[C@@H](O)C[C@@H]1O [1α,24(R)-(OH)2 D3, 1α,24(R)-dihydroxyvitamin D3]
binding to the 1,25-(OH)2 D3 receptor site compared with 1,25-(OH)2 D3 [1]: more tightly than does 1,25-(OH)2 D3 itself

C=C1/C(=C\C=C2/CCC[C@]3(C)[C@@H]([C@H](C)/C=C/[C@H](C)C(C)(C)O)CC[C@@H]23)C[C@@H](O)C[C@@H]1O [1α,25-(OH)2 D2, 1α,25-dihydroxy vitamin D2, reference compound]
Rate of Production (Hep 3B cells): 7.4 pmol per 10^6 cells/day

C=C1/C(=C\C=C2/CCC[C@]3(C)[C@@H]([C@H](C)/C=C/[C@H](C)C(C)C)CC[C@@H]23)C[C@@H](O)C[C@@H]1O [1α-(OH)D2, 1α-hydroxy vitamin D2]
loss of bone mass [2]: will reverse the loss of bone mass

C=C1CC[C@H](O)C/C1=C/C=C1\CCC[C@]2(C)[C@@H]([C@H](C)/C=C/C(C)(O)C(C)C)CC[C@@H]12 (some centres unmarked) [24-OH-D2, 24-hydroxyvitamin D2]
metabolite found in lipid extracts of plasma ([3]; rat, in vivo): one metabolite isolated co-migrated on HPLC with the standard 1α,24-(OH)2 D2

C=C1CC[C@H](O)C/C1=C/C=C1\CCC[C@]2(C)[C@@H]([C@H](C)CCCC(C)(C)O)CC[C@@H]12 [25-OH-D3, 25-hydroxy vitamin D3, reference compound]
Total GH Production (vitamin D receptor (VDR); inducer 10^-6 molar): 1100 ng/mL

C=C1CC[C@H](O)C/C1=C/C=C1\CCC[C@]2(C)[C@@H]([C@H](C)/C=C/[C@H](C)C(C)C)CC[C@@H]12 [vitamin D2, Vitamin D2]
metabolite found in lipid extracts of plasma [3, 4]: one metabolite isolated co-migrated on HPLC with the standard 1α,24-(OH)2 D2

C=C1CC[C@H](O)C/C1=C/C=C1\CCC[C@]2(C)[C@@H]([C@H](C)CCCC(C)C)CC[C@@H]12 [vitamin D3]
metabolite found in lipid extracts of plasma [3, 4]: no detectable 24-OH-D3
